Source: patent US7728028B2, “Substituted imidazoline compounds” (Gruenenthal GmbH, priority 2005, dated 2010)

These compounds were tested against T1, human μ-opiate receptor (Homo sapiens, UniProt P35372) (assay: Affinity for the human μ-opiate receptor ([3H]-naloxone displacement, SPA)). Details: Table 2, Examples 11-161; test substance 1 μmole/l; inhibition of specific [3H]-naloxone binding; CHO-K1 membranes; read-out: μ-Opioid receptor, % inhibition [1 μM].
T1 construct: purchased PerkinElmer Life Sciences, Zaventem, Belgium RB-HOM; host or cells: CHO-K1 cells (recombinant expression; membrane preparation)
Procedure, shortened: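 CHO-K1 membranes expressing the receptor, incubated 90 min at room temperature with 1 nmol/l [3H]-naloxone and WGA-SPA beads in 50 mmol/l Tris-HCl with 0.06% BSA. Non-specific binding defined with 100 μmol/l naloxone. Value is % inhibition of specific binding at 1 μmol/l test substance.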

T1 sequence (P35372 whole entry): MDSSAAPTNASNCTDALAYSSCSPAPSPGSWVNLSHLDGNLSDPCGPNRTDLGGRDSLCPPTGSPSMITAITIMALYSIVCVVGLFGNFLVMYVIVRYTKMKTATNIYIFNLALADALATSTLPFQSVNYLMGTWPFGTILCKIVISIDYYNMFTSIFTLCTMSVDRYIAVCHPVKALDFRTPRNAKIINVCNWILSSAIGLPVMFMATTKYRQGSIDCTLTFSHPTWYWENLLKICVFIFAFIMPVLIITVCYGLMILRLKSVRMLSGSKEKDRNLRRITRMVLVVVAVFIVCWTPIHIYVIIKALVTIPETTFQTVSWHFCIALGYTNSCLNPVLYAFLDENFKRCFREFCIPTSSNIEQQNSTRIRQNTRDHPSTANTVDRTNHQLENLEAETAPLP

SMILES | inhibition at 1 µM [%]
CCCCC1(C(=O)OC)N=CN(CCc2ccccc2)C1CC1CCC(C(c2ccc(Cl)cc2)N(C)C)CC1 (centres unmarked) [Example 45, 4-butyl-5-{4-[(4-chlorophenyl)-dimethylaminomethyl]-cyclohexylmethyl}-1-phenethyl-4,5-dihydro-1H-imidazole-4-carboxylic acid methyl ester] | 97
COC(=O)C1(C)N=CN(Cc2ccccc2)C1CC1CCC(C(c2cccc(F)c2)N(C)C)CC1 (centres unmarked) [Example 140, 1-benzyl-5-{4-[dimethylamino-(3-fluorophenyl)-methyl]-cyclohexylmethyl}-4-methyl-4,5-dihydro-1H-imidazole-4-carboxylic acid methyl ester] | 98
COC(=O)CCC1(C(=O)OC)N=CN(C2CCCCC2)C1C1CCC(C(c2cccc(F)c2)N(C)C)CC1 (centres unmarked) [Example 115, 1-cyclohexyl-5-{4-[dimethylamino-(3-fluorophenyl)-methyl]-cyclohexyl}-4-(2-methoxycarbonylethyl)-4,5-dihydro-1H-imidazole-4-carboxylic acid methyl ester] | 98
CCCCC1(C(=O)OC)N=CN(C2CCCCC2)C1CC1CCC(C(c2ccc(Cl)cc2)N(C)C)CC1 (centres unmarked) [Example 19, 4-butyl-5-{4-[(4-chlorophenyl)-dimethylaminomethyl]-cyclohexylmethyl}-1-cyclohexyl-4,5-dihydro-1H-imidazole-4-carboxylic acid methyl ester] | 96
CCCC1(C(=O)OC)N=CN(CCc2ccccc2)C1CC1CCC(C(CCc2ccccc2)N(C)C)CC1 (centres unmarked) [Example 135, 5-[4-(1-dimethylamino-3-phenylpropyl)-cyclohexylmethyl]-1-phenethyl-4-propyl-4,5-dihydro-1H-imidazole-4-carboxylic acid methyl ester] | 85
CCCN1C=NC(CSCc2ccccc2)(C(=O)OC)C1CC1CCC(C(c2ccc(Cl)cc2)N(C)C)CC1 (centres unmarked) [Example 64, 4-benzylsulfanylmethyl-5-{4-[(4-chlorophenyl)-dimethylaminomethyl]-cyclohexylmethyl}-1-propyl-4,5-dihydro-1H-imidazole-4-carboxylic acid methyl ester] | 98
CCCCN1C=NC(CCCC)(C(=O)OC)C1C1CCC(C(c2ccc(Cl)cc2)N(C)C)CC1 (centres unmarked) [Example 33, 1,4-dibutyl-5-{4-[(4-chlorophenyl)-dimethylaminomethyl]-cyclohexyl}-4,5-dihydro-1H-imidazole-4-carboxylic acid methyl ester] | 85
CCCCN1C=NC(CCSC)(C(=O)OC)C1CC1CCC(C(c2ccc(F)cc2)N(C)C)CC1 (centres unmarked) [Example 126, 1-butyl-5-{4-[dimethylamino-(4-fluorophenyl)-methyl]-cyclohexylmethyl}-4-(2-methylsulfanyl-ethyl)-4,5-dihydro-1H-imidazole-4-carboxylic acid methyl ester] | 98
COC(=O)C1(CC(C)C)N=CN(C2CCCCC2)C1CC1CCC(C(c2ccc(Cl)cc2)N(C)C)CC1 (centres unmarked) [Example 17, 5-{4-[(4-chlorophenyl)-dimethylaminomethyl]-cyclohexylmethyl}-1-cyclohexyl-4-isobutyl-4,5-dihydro-1H-imidazole-4-carboxylic acid methyl ester] | 96
CCCN1C=NC(CCC(=O)OC)(C(=O)OC)C1C1CCC(C(c2ccc(Cl)cc2)N(C)C)CC1 (centres unmarked) [Example 59, 5-{4-[(4-chlorophenyl)-dimethylaminomethyl]-cyclohexyl}-4-(2-methoxycarbonylethyl)-1-propyl-4,5-dihydro-1H-imidazole-4-carboxylic acid methyl ester] | 84
CCCN1C=NC(CCC)(C(=O)OC)C1CC1CCC(C(c2cccc(F)c2)N(C)C)CC1 (centres unmarked) [Example 111, 5-{4-[dimethylamino-(3-fluorophenyl)-methyl]-cyclohexylmethyl}-1,4-dipropyl-4,5-dihydro-1H-imidazole-4-carboxylic acid methyl ester] | 90
CCCCN1C=NC(Cc2ccc(Cl)cc2)(C(=O)OC)C1C1CCC(C(c2cccc(F)c2)N(C)C)CC1 (centres unmarked) [Example 30, 1-butyl-4-(4-chlorobenzyl)-5-{4-[dimethylamino-(3-fluorophenyl)-methyl]-cyclohexyl}-4,5-dihydro-1H-imidazole-4-carboxylic acid methyl ester] | 89
COC(=O)C1(CC(C)C)N=CN(CCc2ccccc2)C1CC1CCC(C(c2ccc(Cl)cc2)N(C)C)CC1 (centres unmarked) [Example 43, 5-{4-[(4-chlorophenyl)-dimethylaminomethyl]-cyclohexylmethy}-4-isobutyl-1-phenethyl-4,5-dihydro-1H-imidazole-4-carboxylic acid methyl ester] | 97
CCCCN1C=NC(CSC)(C(=O)OC)C1C1CCC(C(c2cccc(F)c2)N(C)C)CC1 (centres unmarked) [Example 66, 1-butyl-5-{4-[dimethylamino-(3-fluorophenyl)-methyl]-cyclohexyl}-4-methylsulfanylmethyl-4,5-dihydro-1H-imidazole-4-carboxylic acid methyl ester] | 89
CCCC1(C(=O)OC)N=CN(Cc2ccccc2)C1CC1CCC(C(CCc2ccccc2)N(C)C)CC1 (centres unmarked) [Example 144, 1-benzyl-5-[4-(1-dimethylamino-3-phenylpropyl)-cyclohexylmethyl]-4-propyl-4,5-dihydro-1H-imidazole-4-carboxylic acid methyl ester] | 90
COC(=O)CCC1(C(=O)OC)N=CN(C2CCCCC2)C1CC1CCC(C(c2ccc(F)cc2)N(C)C)CC1 (centres unmarked) [Example 151, 1-cyclohexyl-5-{4-[dimethylamino-(4-fluorophenyl)-methyl]-cyclohexylmethyl}-4-(2-methoxycarbonylethyl)-4,5-dihydro-1H-imidazole-4-carboxylic acid methyl ester] | 95
CCCC1(C(=O)OC)N=CN(CCc2ccccc2)C1CC1CCC(C(c2ccc(F)cc2)N(C)C)CC1 (centres unmarked) [Example 132, 5-{4-[dimethylamino-(4-fluorophenyl)-methyl]-cyclohexylmethyl}-1-phenethyl-4-propyl-4,5-dihydro-1H-imidazole-4-carboxylic acid methyl ester] | 98
COC(=O)C1(CSCc2ccccc2)N=CN(Cc2ccccc2)C1C1CCC(C(c2cccc(F)c2)N(C)C)CC1 (centres unmarked) [Example 97, 1-benzyl-4-benzylsulfanylmethyl-5-{4-[dimethylamino-(3-fluorophenyl)-methyl]-cyclohexyl}-4,5-dihydro-1H-imidazole-4-carboxylic acid methyl ester] | 97
CCCCN1C=NC(C(=O)OC)(C(C)CC)C1CC1CCC(C(c2ccc(Cl)cc2)N(C)C)CC1 (centres unmarked) [Example 88, 1-butyl-4-sec-butyl-5-{4-[(4-chlorophenyl)-dimethylaminomethyl]-cyclohexylmethyl}-4,5-dihydro-1H-imidazole-4-carboxylic acid methyl ester] | 98
CCC(C)C1(C(=O)OC)N=CN(C2CCCCC2)C1CC1CCC(C(c2cccc(F)c2)N(C)C)CC1 (centres unmarked) [Example 148, 4-sec-butyl-1-cyclohexyl-5-{4-[dimethylamino-(3-fluorophenyl)-methyl]-cyclohexylmethyl}-4,5-dihydro-1H-imidazole-4-carboxylic acid methyl ester] | 95
